This is an account of results in ChEMBL document CHEMBL1135104, “A novel type of nonsteroidal estrone sulfatase inhibitors” (Bioorg Med Chem Lett, 2002).

Molecules are shown by their SMILES.

System in the first series: not listed separately
The series is described as follows: Acute toxicity in the hens fertile egg screening test (HEST). The arrangement: species or system Gallus gallus. As to conditions: chicken.
In general, LD50 refers to the dose at which mortality reaches 50%. A lower LD50 goes with a more toxic substance. Consider `COc1c2c(c(O)c3c1C(=O)c1c(cc(O)c(C)c1O)C3=O)-c1c(cc(/C=N/NC(=S)NC3CCCCC3)c(C(=O)O)c1O)CC2` [MHL CYCLOHEXYLTHIOSEMICARBAZONE], for which the 50% lethal dose (LD50) was greater than 50 mg/kg.

A further series concerns the target T1, Steryl-sulfatase (Homo sapiens, UniProt P08842).
T1 sequence (P08842 whole entry): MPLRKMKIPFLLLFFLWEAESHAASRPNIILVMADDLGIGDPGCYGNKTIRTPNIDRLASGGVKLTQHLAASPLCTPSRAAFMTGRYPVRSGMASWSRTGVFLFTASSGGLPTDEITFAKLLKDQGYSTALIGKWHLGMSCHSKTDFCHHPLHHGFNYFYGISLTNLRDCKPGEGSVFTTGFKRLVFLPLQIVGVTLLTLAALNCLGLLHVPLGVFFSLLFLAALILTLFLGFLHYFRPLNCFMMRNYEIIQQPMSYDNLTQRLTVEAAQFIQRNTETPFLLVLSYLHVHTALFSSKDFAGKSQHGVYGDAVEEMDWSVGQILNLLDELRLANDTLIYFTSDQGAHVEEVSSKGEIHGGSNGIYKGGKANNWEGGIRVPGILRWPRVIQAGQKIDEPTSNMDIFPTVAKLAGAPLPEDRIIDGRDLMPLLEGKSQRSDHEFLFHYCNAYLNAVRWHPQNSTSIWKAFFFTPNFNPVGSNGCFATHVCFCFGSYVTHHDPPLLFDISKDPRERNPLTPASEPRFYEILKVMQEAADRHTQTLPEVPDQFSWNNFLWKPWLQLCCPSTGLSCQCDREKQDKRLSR
The experiment in a line: Inhibitory activity againist Estrone sulfatase from MCF-7 cells ([…]). Format: cell-based, MCF7.
Details: not given
The term IC50 denotes the concentration that gives 50% inhibition. For `Cc1cc(=O)oc2cc(OS(N)(=O)=O)ccc12`, the IC50 turned out to be 2.6 µM.

`COc1c2c(c(O)c3c1C(=O)c1c(cc(O)c(C)c1O)C3=O)-c1c(cc(/C=N/N=C(\S)NC3CCC(C)CC3)c(C(=O)O)c1O)CC2` (centres undefined): it took 4 µM to reach half-maximal inhibition (IC50).

As to `COc1c2c(c(O)c3c1C(=O)c1c(cc(O)c(C)c1O)C3=O)-c1c(cc(/C=N/NC(=O)NC3CCCCC3)c(C(=O)O)c1O)CC2`, the concentration for half-maximal inhibition (IC50) is 7 µM.

In turn, `COc1c2c(c(O)c3c1C(=O)c1c(cc(O)c(C)c1O)C3=O)-c1c(cc(/C=N/N=C(\S)Nc3ccc(Cl)cc3)c(C(=O)O)c1O)CC2` showed an IC50 greater than 100 µM.

Turning to `COc1c2c(c(O)c3c1C(=O)c1c(cc(O)c(C)c1O)C3=O)-c1c(cc(/C=N/N=C(\S)N3CCCCC3)c(C(=O)O)c1O)CC2`, the IC50 worked out at 8 µM.

For `COc1c2c(c(O)c3c1C(=O)c1c(cc(O)c(C)c1O)C3=O)-c1c(cc(/C=N/NC(=O)Nc3ccccc3)c(C(=O)O)c1O)CC2`, the IC50 is greater than 100 µM.

As for `COc1c2c(c(O)c3c1C(=O)c1c(cc(O)c(C)c1O)C3=O)-c1c(cc(/C=N/N=C(\S)Nc3ccccc3)c(C(=O)O)c1O)CC2`, the IC50 came to 4.8 µM.

As to `COc1c2c(c(O)c3c1C(=O)c1c(cc(O)c(C)c1O)C3=O)-c1c(cc(/C=N/N=C(\S)Oc3ccccc3)c(C(=O)O)c1O)CC2`, the IC50 is greater than 100 µM.

Compound `COc1c2c(c(O)c3c1C(=O)c1c(cc(O)c(C)c1O)C3=O)-c1c(cc(/C=N/N=C(\S)N(C)C3CCCCC3)c(C(=O)O)c1O)CC2` yielded a concentration for half-maximal inhibition (IC50) of 1.4 µM.

In the case of `COc1c2c(c(O)c3c1C(=O)c1c(cc(O)c(C)c1O)C3=O)-c1c(cc(/C=N/N=C(\S)NC(C)(C)C)c(C(=O)O)c1O)CC2`, the IC50 was found to be 25 µM.

Consider `COc1ccc(N/C(S)=N/N=C/c2cc3c(c(O)c2C(=O)O)-c2c(O)c4c(c(OC)c2CC3)C(=O)c2c(cc(O)c(C)c2O)C4=O)cc1`, for which the concentration for half-maximal inhibition (IC50) came out at 23 µM.

Regarding `COc1c2c(c(O)c3c1C(=O)c1c(cc(O)c(C)c1O)C3=O)-c1c(cc(/C=N/NC(=O)Oc3ccccc3)c(C(=O)O)c1O)CC2`, the IC50 was greater than 100 µM.

Compound `COc1c2c(c(O)c3c1C(=O)c1c(cc(O)c(C)c1O)C3=O)-c1c(cc(/C=N/N=C(\S)NC3CCCC3)c(C(=O)O)c1O)CC2` showed an IC50 of 3.2 µM.

Regarding `COc1c2c(c(O)c3c1C(=O)c1c(cc(O)c(C)c1O)C3=O)-c1c(cc(/C=N/N=C(\S)Nc3ccc(C)cc3)c(C(=O)O)c1O)CC2`, it took 12 µM to reach half-maximal inhibition (IC50).

Regarding `COc1c2c(c(O)c3c1C(=O)c1c(cc(O)c(C)c1O)C3=O)-c1c(cc(/C=N/N=C(\S)NC3CC3)c(C(=O)O)c1O)CC2`, the midpoint of inhibition, the IC50, lay at 22 µM.

As for `CCCCCCCCC/N=C(\S)N/N=C/c1cc2c(c(O)c1C(=O)O)-c1c(O)c3c(c(OC)c1CC2)C(=O)c1c(cc(O)c(C)c1O)C3=O`, the IC50 is 19 µM.

Regarding `CCCCCCC/N=C(\S)N/N=C/c1cc2c(c(O)c1C(=O)O)-c1c(O)c3c(c(OC)c1CC2)C(=O)c1c(cc(O)c(C)c1O)C3=O`, the IC50 was found to be 9 µM.

Consider `COc1c2c(c(O)c3c1C(=O)c1c(cc(O)c(C)c1O)C3=O)-c1c(cc(/C=N/N=C(\S)NC3CCCCCCC3)c(C(=O)O)c1O)CC2`, for which inhibition was half-maximal at 15 µM (IC50).

Compound `COc1c2c(c(O)c3c1C(=O)c1c(cc(O)c(C)c1O)C3=O)-c1c(cc(/C=N/N=C(\S)NC3CCCCCC3)c(C(=O)O)c1O)CC2` yielded an IC50 of 1.8 µM.

The compound `CC/N=C(\S)N/N=C/c1cc2c(c(O)c1C(=O)O)-c1c(O)c3c(c(OC)c1CC2)C(=O)c1c(cc(O)c(C)c1O)C3=O` displayed an IC50 of 16 µM.

For `CCC/N=C(\S)N/N=C/c1cc2c(c(O)c1C(=O)O)-c1c(O)c3c(c(OC)c1CC2)C(=O)c1c(cc(O)c(C)c1O)C3=O`, the concentration for half-maximal inhibition (IC50) was determined as 20 µM.

As to `CN/C(S)=N/N=C/c1cc2c(c(O)c1C(=O)O)-c1c(O)c3c(c(OC)c1CC2)C(=O)c1c(cc(O)c(C)c1O)C3=O`, half-maximal inhibition (IC50) required 29 µM.

Turning to `COc1c2c(c(O)c3c1C(=O)c1c(cc(O)c(C)c1O)C3=O)-c1c(cc(/C=N/N=C(\S)NCC(C)C)c(C(=O)O)c1O)CC2`, the IC50 amounted to 11 µM.

The compound `COc1c2c(c(O)c3c1C(=O)c1c(cc(O)c(C)c1O)C3=O)-c1c(cc(/C=N/N=C(/N)S)c(C(=O)O)c1O)CC2` returned an IC50 greater than 100 µM.

`COc1c2c(c(O)c3c1C(=O)c1c(cc(O)c(C)c1O)C3=O)-c1c(cc(/C=N/N=C(\S)NN3CCCCC3)c(C(=O)O)c1O)CC2` gave an IC50 of 6 µM.

The compound `CCCCCCCCCCCC/N=C(\S)N/N=C/c1cc2c(c(O)c1C(=O)O)-c1c(O)c3c(c(OC)c1CC2)C(=O)c1c(cc(O)c(C)c1O)C3=O` showed an IC50 of 50 µM.

`CCCC/N=C(\S)N/N=C/c1cc2c(c(O)c1C(=O)O)-c1c(O)c3c(c(OC)c1CC2)C(=O)c1c(cc(O)c(C)c1O)C3=O` had an IC50 of 6 µM.

For the compound `COc1c2c(c(O)c3c1C(=O)c1c(cc(O)c(C)c1O)C3=O)-c1c(cc(/C=N/N=C(\S)NC(C)C)c(C(=O)O)c1O)CC2`, half-maximal inhibition (IC50) required 24 µM.

The compound `CCC(CC)/N=C(\S)N/N=C/c1cc2c(c(O)c1C(=O)O)-c1c(O)c3c(c(OC)c1CC2)C(=O)c1c(cc(O)c(C)c1O)C3=O` had an IC50 of 18 µM.

As for `CCCCCC/N=C(\S)N/N=C/c1cc2c(c(O)c1C(=O)O)-c1c(O)c3c(c(OC)c1CC2)C(=O)c1c(cc(O)c(C)c1O)C3=O`, the IC50 amounted to 8 µM.

In turn, `CCCCC/N=C(\S)N/N=C/c1cc2c(c(O)c1C(=O)O)-c1c(O)c3c(c(OC)c1CC2)C(=O)c1c(cc(O)c(C)c1O)C3=O` gave an IC50 of 13 µM.

The compound `COc1c2c(c(O)c3c1C(=O)c1c(cc(O)c(C)c1O)C3=O)-c1c(cc3c(c1O)C(=O)OC3O)CC2` (centres undefined) registered an IC50 of 41 µM.

In turn, `COc1c2c(c(O)c3c1C(=O)c1c(cc(O)c(C)c1O)C3=O)-c1c(cc(/C=N/NC(=S)NC3CCCCC3)c(C(=O)O)c1O)CC2` [MHL CYCLOHEXYLTHIOSEMICARBAZONE] showed an IC50 of 0.46 µM.
